From patent US10980853B2, “Process for preparing a crassocephalum crepidioides extract, extract prepared thereby and use of the extract” (DEVELOPMENT CENTER FOR BIOTECHNOLOGY, priority 2015, dated 2021)
Converted amounts (≈) assume the structure as drawn.

How the values were obtained:
MKN45 cells [1] = assay: Combination with 5-FU or epirubicin in the inhibition of the growth of MKN45 cancer cells (combination index); format: cell-based; conditions: CI<1 synergism, CI=1 addition, CI>1 antagonism
Method: (§1) MKN45 cells were incubated in RPMI-1640 medium (Sigma-Aldrich) containing 5% FBS (Gibco®). 6×10^3 cells were added to each well of a 96-well plate. Each well contained 180 μL of the above medium. The plate was incubated at 37° C. for 4 hours, and then 20 μL of various concentrations of each of the raw extract, Cr-E03 and dLGG were added to each well of the plate. Each concentration was tested with 3 replicates. After further incubation at 37° C. for 48 hours, the medium in the wells was removed, and 180 μL of 5% FBS medium containing 3-(4,5-dimethylthiazol-2-yl)-5-(3-carboxymethoxyphenyl)-2-(4-sulfophenyl)-2H-tetrazolium (MTS) were added to the wells. After reaction at 37° C. for 1 hour, the absorption values at 490 nm of the wells were measured by ELISA Reader (Model 680 Microplate Reader, Bio-Rad). IC25, IC50 and IC75 values of the raw extract, Cr-E03 and dLGG, respectively, were obtained by calculation using GraphPad Prism 5 software (GraphPad Software, Inc). IC25, IC50 and IC75 values are defined as the concentrations of the test sample which achieve 25%, 50% and 75%, respectively, of the maximal inhibition of the growth of MKN45 cells.
Combinations of different concentrations of each of the raw extract, Cr-E03 and dLGG with different concentrations of each of 5-fluorouracil (5-FU) and epirubicin were prepared. […]

MKN45 cells [2] = assay: Inhibition of the growth of MKN45 cancer cells (MTS assay); format: cell-based
Method: as §1

IC50 (MKN45 cells [2]; Homo sapiens, MKN-45, 48 hours, concentration achieving 50% of maximal growth inhibition): 47.3 µg/mL (≈ 61 µM)
SMILES: CC/C=C\C/C=C\C/C=C\CCCCCCCC(=O)OC[C@H](CO[C@@H]1O[C@H](CO)[C@H](O)[C@H](O)[C@H]1O)OC(=O)CCCCCCC/C=C\C/C=C\C/C=C\CC [dLGG, 1,2-di-O-α-linolenoyl-3-O-β-galactopyranosyl-sn-glycerol]
CI (combination index) (MKN45 cells [1]; combination with 5FU): 1.58
CI (combination index) (MKN45 cells [1]; combination with Epi (epirubicin)): 1.58
IC25 (MKN45 cells [2]; 48 hours, concentration achieving 25% of maximal growth inhibition): 35.86 µg/mL (≈ 46.3 µM)
IC75 (MKN45 cells [2]; 48 hours, concentration achieving 75% of maximal growth inhibition): 61.96 µg/mL (≈ 79.9 µM)
